From PubChem BioAssay AID1963829 (Molecular Pharmacology Branch, DTP, NCI, 2024)

Tested on: 935938-334-R-J1-PDC complex spheroid viability
Assay: Anticancer human tumor 935938-334-R-J1-PDC patient-derived small intestine adenocarcinoma cell line growth inhibition [POLQ]
Settings: for IC50: curve of first compound; for viability, T/C: stronger effect = lower value
Outline: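 Complex spheroid viability model combining PDC tumour cells with endothelial (HUVEC) and MSC stromal cells. Novobiocin, ART-558 or RP6685 were tested singly and in combination with standard and investigational anticancer drugs. Each was titrated in half-log steps from near clinical Cmax, or from 10 microM where Cmax was unknown.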

[1] = second compound 0.0316 µM, first compound 0.0316 µM
[2] = second compound 0.0316 µM, first compound 0.1 µM
[3] = second compound 0.0316 µM, first compound 0.316 µM
[4] = second compound 0.0316 µM, first compound 1 µM
[5] = second compound 0.0316 µM, first compound 3.16 µM
[6] = second compound 0.0316 µM, first compound 10 µM
[7] = second compound 0.1 µM, first compound 0.0316 µM
[8] = second compound 0.1 µM, first compound 0.1 µM
[9] = second compound 0.1 µM, first compound 0.316 µM
[10] = second compound 0.1 µM, first compound 1 µM
[11] = second compound 0.1 µM, first compound 3.16 µM
[12] = second compound 0.1 µM, first compound 10 µM
[13] = second compound 0.316 µM, first compound 0.0316 µM
[14] = second compound 0.316 µM, first compound 0.1 µM
[15] = second compound 0.316 µM, first compound 0.316 µM
[16] = second compound 0.316 µM, first compound 1 µM
[17] = second compound 0.316 µM, first compound 3.16 µM
[18] = second compound 0.316 µM, first compound 10 µM
[19] = second compound 1 µM, first compound 0.0316 µM
[20] = second compound 1 µM, first compound 0.1 µM
[21] = second compound 1 µM, first compound 0.316 µM
[22] = second compound 1 µM, first compound 1 µM
[23] = second compound 1 µM, first compound 3.16 µM
[24] = second compound 1 µM, first compound 10 µM
[25] = second compound 3.16 µM, first compound 0.0316 µM
[26] = second compound 3.16 µM, first compound 0.1 µM
[27] = second compound 3.16 µM, first compound 0.316 µM
[28] = second compound 3.16 µM, first compound 1 µM
[29] = second compound 3.16 µM, first compound 3.16 µM
[30] = second compound 3.16 µM, first compound 10 µM
[31] = second compound 10 µM, first compound 0.0316 µM
[32] = second compound 10 µM, first compound 0.1 µM
[33] = second compound 10 µM, first compound 0.316 µM
[34] = second compound 10 µM, first compound 1 µM
[35] = second compound 10 µM, first compound 3.16 µM
[36] = second compound 10 µM, first compound 10 µM
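Further: spheroids exposed to drugs for seven days before viability read.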
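Wherever viability, T/C is given: 100% = DMSO vehicle control wells.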

## Nc1ccn(C2OC(CO)C(O)C2(F)F)c(=O)n1 (stereo unspecified) + Cc1cccc(N(C)C(=O)C2C(O)CCN2c2nc(C)cc(C(F)(F)F)c2C#N)c1
Second compound 0.0316 µM
  IC50: < 31.6 nM
Second compound 0.1 µM
  IC50: < 31.6 nM
Second compound 0.316 µM
  IC50: < 31.6 nM
Second compound 1 µM
  IC50: < 31.6 nM
Second compound 3.16 µM
  IC50: < 31.6 nM
Second compound 10 µM
  IC50: < 31.6 nM
[1]
  viability, T/C: 40.4%
[2]
  viability, T/C: 27.8%
[3]
  viability, T/C: 23.1%
[4]
  viability, T/C: 21%
[5]
  viability, T/C: 18.2%
[6]
  viability, T/C: 16.3%
[7]
  viability, T/C: 32.9%
[8]
  viability, T/C: 29.7%
[9]
  viability, T/C: 21.4%
[10]
  viability, T/C: 21.1%
[11]
  viability, T/C: 20.2%
[12]
  viability, T/C: 21.2%
[13]
  viability, T/C: 40.2%
[14]
  viability, T/C: 30.9%
[15]
  viability, T/C: 23.2%
[16]
  viability, T/C: 23.4%
[17]
  viability, T/C: 18.8%
[18]
  viability, T/C: 18.1%
[19]
  viability, T/C: 37.4%
[20]
  viability, T/C: 27.7%
[21]
  viability, T/C: 26.6%
[22]
  viability, T/C: 23.2%
[23]
  viability, T/C: 22.8%
[24]
  viability, T/C: 19.9%
[25]
  viability, T/C: 37.3%
[26]
  viability, T/C: 33.8%
[27]
  viability, T/C: 24.8%
[28]
  viability, T/C: 19.2%
[29]
  viability, T/C: 23.2%
[30]
  viability, T/C: 20.3%
[31]
  viability, T/C: 39.2%
[32]
  viability, T/C: 35.4%
[33]
  viability, T/C: 29.2%
[34]
  viability, T/C: 23.3%
[35]
  viability, T/C: 26.2%
[36]
  viability, T/C: 19.2%

## COc1cc(C2c3cc4c(cc3C(OC3OC5COC(C)OC5C(O)C3O)C3COC(=O)C23)OCO4)cc(OC)c1O (stereo unspecified) + COC1C(OC(N)=O)C(O)C(Oc2ccc3c(O)c(NC(=O)c4ccc(O)c(CC=C(C)C)c4)c(=O)oc3c2C)OC1(C)C
Second compound 0.0316 µM
  IC50: 1040 nM
Second compound 0.1 µM
  IC50: 683 nM
Second compound 0.316 µM
  IC50: 691 nM
Second compound 1 µM
  IC50: 569 nM
Second compound 3.16 µM
  IC50: 887 nM
Second compound 10 µM
  IC50: 706 nM
[1]
  viability, T/C: 97.7%
[2]
  viability, T/C: 81.4%
[3]
  viability, T/C: 70.2%
[4]
  viability, T/C: 47.3%
[5]
  viability, T/C: 39.5%
[6]
  viability, T/C: 29.4%
[7]
  viability, T/C: 105%
[8]
  viability, T/C: 94%
[9]
  viability, T/C: 67.3%
[10]
  viability, T/C: 41.8%
[11]
  viability, T/C: 30.8%
[12]
  viability, T/C: 30.7%
[13]
  viability, T/C: 134%
[14]
  viability, T/C: 85.2%
[15]
  viability, T/C: 80.4%
[16]
  viability, T/C: 32.8%
[17]
  viability, T/C: 27.5%
[18]
  viability, T/C: 26%
[19]
  viability, T/C: 105%
[20]
  viability, T/C: 126%
[21]
  viability, T/C: 62.2%
[22]
  viability, T/C: 57.6%
[23]
  viability, T/C: 26.7%
[24]
  viability, T/C: 30.6%
[25]
  viability, T/C: 78%
[26]
  viability, T/C: 108%
[27]
  viability, T/C: 83.3%
[28]
  viability, T/C: 46.7%
[29]
  viability, T/C: 28.9%
[30]
  viability, T/C: 32.6%
[31]
  viability, T/C: 96.9%
[32]
  viability, T/C: 75.9%
[33]
  viability, T/C: 68.7%
[34]
  viability, T/C: 43.9%
[35]
  viability, T/C: 27.4%
[36]
  viability, T/C: 35.5%

## C=CCn1c(=O)c2cnc(Nc3ccc(N4CCN(C)CC4)cc3)nc2n1-c1cccc(C(C)(C)O)n1 + Cc1cccc(N(C)C(=O)C2C(O)CCN2c2nc(C)cc(C(F)(F)F)c2C#N)c1
Second compound 0.0316 µM
  IC50: 591 nM
Second compound 0.1 µM
  IC50: 500 nM
Second compound 0.316 µM
  IC50: 513 nM
Second compound 1 µM
  IC50: 669 nM
Second compound 3.16 µM
  IC50: 595 nM
Second compound 10 µM
  IC50: 516 nM
Second compound 0.0316 µM, first compound 0.00316 µM
  viability, T/C: 86.3%
Second compound 0.0316 µM, first compound 0.01 µM
  viability, T/C: 67.3%
[1]
  viability, T/C: 80%
[2]
  viability, T/C: 85.8%
[3]
  viability, T/C: 77.8%
[4]
  viability, T/C: 26.6%
Second compound 0.1 µM, first compound 0.00316 µM
  viability, T/C: 93%
Second compound 0.1 µM, first compound 0.01 µM
  viability, T/C: 87.5%
[7]
  viability, T/C: 97%
[8]
  viability, T/C: 107%
[9]
  viability, T/C: 66%
[10]
  viability, T/C: 25.7%
Second compound 0.316 µM, first compound 0.00316 µM
  viability, T/C: 90.4%
Second compound 0.316 µM, first compound 0.01 µM
  viability, T/C: 110%
[13]
  viability, T/C: 83.6%
[14]
  viability, T/C: 95.9%
[15]
  viability, T/C: 67.8%
[16]
  viability, T/C: 25.5%
Second compound 1 µM, first compound 0.00316 µM
  viability, T/C: 94.8%
Second compound 1 µM, first compound 0.01 µM
  viability, T/C: 98.6%
[19]
  viability, T/C: 106%
[20]
  viability, T/C: 104%
[21]
  viability, T/C: 92.1%
[22]
  viability, T/C: 27%
Second compound 3.16 µM, first compound 0.00316 µM
  viability, T/C: 69.9%
Second compound 3.16 µM, first compound 0.01 µM
  viability, T/C: 112%
[25]
  viability, T/C: 74.9%
[26]
  viability, T/C: 87.7%
[27]
  viability, T/C: 78.4%
[28]
  viability, T/C: 26.2%
Second compound 10 µM, first compound 0.00316 µM
  viability, T/C: 103%
Second compound 10 µM, first compound 0.01 µM
  viability, T/C: 101%
[31]
  viability, T/C: 88.7%
[32]
  viability, T/C: 96.4%
[33]
  viability, T/C: 72.2%
[34]
  viability, T/C: 19.6%
